According to US4672068A, “Antihypertensive 1,4-dihydropyridines having a conjugated ester” (Fujirebio Kabushiki Kaisha, priority 1984, dated 1987):

System: Male spontaneously hypertensive rats (SHR), arterial blood pressure
Assay: Depressor response after intravenous administration (30 μg/kg), Table 1
Format: in vivo, rat
Conditions: for Duration: '90<' means greater than 90
Method: Male spontaneously hypertensive rats (SHR) which had mean arterial blood pressures higher than 140 mmHg were used for the experiments. Arterial blood pressure was measured through the catherized artery with a pressure transducer (MPU-0.5, manufactured by Nihon Kohden Kabushiki Kaisha). The catheter was inserted into the abdominal aorta via the median coccygcal artery of SHR under light ether anesthesia. The recordings were made on a rectigraph (manufactured by Sanei Sokki Kabushiki Kaisha). The 1,4-dihydropyridine derivatives prepared in the foregoing examples were administered with catheter which was inserted previously into the caudal vein or duodenum at least two hours after the operation. SHR were restrained with wire mesh cage immediately after the operation. Each derivative to be tested was dissolved in 1.5% PVP/ethanol, and then diluted with 0.9% saline or intravenous administration (30 μg/kg), or suspended in 5% gum arabic solution of intraduodenal administration (1 mg/kg).

Structure (SMILES)	The time to reach the lowest BP	ΔBP (Maximum depressor response)	Duration
COC(=O)C1=C(C)NC(C)=C(C(=O)OCC=C(C)c2ccccc2)C1c1cccc([N+](=O)[O-])c1 (centres unmarked) [Example 5, 3-phenyl-2-butenyl methyl 4-(3-nitrophenyl)-2,6-dimethyl-1,4-dihydropyridine-3,5-dicarboxylate]	1.0 min	44 mmHg	65 min
COC(=O)C1=C(C)NC(C)=C(C(=O)OC(C=Cc2ccccc2)C(C)(C)C)C1c1cccc([N+](=O)[O-])c1 (centres unmarked) [Example 6, 1-tert-butyl-3-phenyl-2-propenyl methyl 4-(3-nitrophenyl)-2,6-dimethyl-1,4-dihydropyridine-3,5-dicarboxylate]	70 min	55 mmHg	> 90 min
COC(=O)C1=C(C)NC(C)=C(C(=O)OC(C=Cc2ccccc2)C(C)C)C1c1cccc([N+](=O)[O-])c1 (centres unmarked) [Example 8, 1-isopropyl-3-phenyl-2-propenyl methyl 4-(3-nitrophenyl)-2,6-dimethyl-1,4-dihydropyridine-3,5-dicarboxylate]	25 min	87 mmHg	> 180 min
COC(=O)C1=C(C)NC(C)=C(C(=O)OCC=C(c2ccccc2)c2ccccc2)C1c1cccc([N+](=O)[O-])c1 (centres unmarked) [Example 9, 3,3-diphenyl-2-propenyl methyl 4-(3-nitrophenyl)-2,6-dimethyl-1,4-dihydropyridine-3,5-dicarboxylate]	13 min	12 mmHg	> 240 min
CCCC(C=Cc1ccccc1)OC(=O)C1=C(C)NC(C)=C(C(=O)OC)C1c1cccc([N+](=O)[O-])c1 (centres unmarked) [Example 10, 1-propyl-3-phenyl-2-propenyl methyl 4-(3-nitrophenyl)-2,6-dimethyl-1,4-dihydropyridine-3,5-dicarboxylate]	12.5 min	72 mmHg	> 90 min
COCCOC(=O)C1=C(C)NC(C)=C(C(=O)OCC=Cc2ccccc2)C1c1cccc([N+](=O)[O-])c1 (centres unmarked) [Example 13, Cinnamyl 2-methoxyethyl 4-(3-nitrophenyl)-2,6-dimethyl-1,4-dihydropyridine-3,5-dicarboxylate]	2.0 min	35 mmHg	> 270 min
COC(=O)C1=C(C)NC(C)=C(C(=O)OCCC=Cc2ccc(C)cc2)C1c1cccc([N+](=O)[O-])c1 (centres unmarked) [Example 20, 4-(p-methylphenyl)-3-butenyl methyl 4-(3-nitrophenyl)-2,6-dimethyl-1,4-dihydropyridine-3,5-dicarboxylate]	1.8 min	52.5 mmHg	90 min
COC(=O)C1=C(C)NC(C)=C(C(=O)OCCC=Cc2ccc([N+](=O)[O-])cc2)C1c1cccc([N+](=O)[O-])c1 (centres unmarked) [Example 21, 4(p-nitrophenyl)-3-butenyl methyl 4-(3-nitrophenyl)-2,6-dimethyl-1,4-dihydropyridine-3,5-dicarboxylate]	1.0 min	70 mmHg	> 120 min
COC(=O)C1=C(C)NC(C)=C(C(=O)OCC(C)=Cc2ccccc2)C1c1cccc([N+](=O)[O-])c1 (centres unmarked) [Example 22, 2-methyl-3-phenyl-2-propenyl methyl 4-(3-nitrophenyl)-2,6-dimethyl-1,4-dihydropyridine-3,5-dicarboxylate]	1.8 min	50 mmHg	120 min
COC(=O)C1=C(C)NC(C)=C(C(=O)OC(C)(C)C=Cc2ccccc2)C1c1cccc([N+](=O)[O-])c1 (centres unmarked) [Example 23, 1,1-dimethyl-3-phenyl-2-propenyl methyl 4-(3-nitrophenyl)-2,6-dimethyl-1,4-dihydropyridine-3,5-dicarboxylate]	2.2 min	48 mmHg	
CCC(C=Cc1ccccc1)OC(=O)C1=C(C)NC(C)=C(C(=O)OC)C1c1cccc([N+](=O)[O-])c1 (centres unmarked) [Example 25, 1-ethyl-3-phenyl-2-propenyl methyl 4-(3-nitrophenyl)-2,6-dimethyl-1,4-dihydropyridine-3,5-dicarboxylate]	10 min	71 mmHg	> 240 min
COC(=O)C1=C(C)NC(C)=C(C(=O)OCCC=Cc2ccsc2)C1c1cccc([N+](=O)[O-])c1 (centres unmarked) [Example 26, 4-(3-thienyl)-3-butenyl methyl 4-(3-nitrophenyl)-2,6-dimethyl-1,4-dihydropyridine-3,5-dicarboxylate]	1.5 min	47 mmHg	
COC(=O)C1=C(C)NC(C)=C(C(=O)OCC=Cc2ccc3ccccc3c2)C1c1cccc([N+](=O)[O-])c1 (centres unmarked) [Example 29, 3-(2-naphthyl)-2-propenyl methyl 4-(3-nitrophenyl)-2,6-dimethyl-1,4-dihydropyridine-3,5-dicarboxylate]	5.0 min	25 mmHg	
CCOC(=O)C1=C(C)NC(C)=C(C(=O)OC(C)C=Cc2ccccc2)C1c1cccc([N+](=O)[O-])c1 (centres unmarked) [Example 31, 1-methyl-3-phenyl-2-propenyl ethyl 4-(3-nitrophenyl)-2,6-dimethyl-1,4-dihydropyridine-3,5-dicarboxylate]	40 min	73 mmHg	> 170 min
CC1=C(C(=O)OC(C)C)C(c2cccc([N+](=O)[O-])c2)C(C(=O)OC(C)C=Cc2ccccc2)=C(C)N1 (centres unmarked) [Example 32, 1-methyl-3-phenyl-2-propenyl isopropyl 4-(3-nitrophenyl)-2,6-dimethyl-1,4-dihydropyridine-3,5-dicarboxylate]	5 min	90 mmHg	> 190 min
COCCOC(=O)C1=C(C)NC(C)=C(C(=O)OC(C)C=Cc2ccccc2)C1c1cccc([N+](=O)[O-])c1 (centres unmarked) [Example 34, 1-methyl-3-phenyl-2-propenyl 2-methoxyethyl 4-(3-nitrophenyl)-2,6-dimethyl-1,4-dihydropyridine-3,5-dicarboxylate]	5 min	45 mmHg	> 230 min
COC(=O)C1=C(C)NC(C)=C(C(=O)OCC=Cc2ccccc2)C1c1ccccc1F (centres unmarked) [Example 40, Cinnamyl methyl 4-(2-fluorophenyl)-2,6-dimethyl-1,4-dihydropyridine-3,5-dicarboxylate]	1.4 min	60 mmHg	> 90 min
CCSCCOC(=O)C1=C(C)NC(C)=C(C(=O)OCC=Cc2ccccc2)C1c1cccc([N+](=O)[O-])c1 (centres unmarked) [Example 41, cinnamyl 2-ethylthioethyl 4-(3-nitrophenyl)-2,6-dimethyl-1,4-dihydropyridine-3,5-dicarboxylate]	5 min	28 mmHg	> 120 min
CC1=C(C(=O)OCC=Cc2ccccc2)C(c2cccc([N+](=O)[O-])c2)C(C(=O)OCCSc2ccccc2)=C(C)N1 (centres unmarked) [Example 42, Cinnamyl 2-phenylthioethyl 4-(3-nitrophenyl)-2,6-dimethyl-1,4-dihydropyridine-3,5-dicarboxylate]	10 min	35 mmHg	> 90 min
CC1=C(C(=O)OCC=Cc2ccccc2)C(c2cccc([N+](=O)[O-])c2)C(C(=O)OCC=Cc2ccccc2)=C(C)N1 (centres unmarked) [Example 45, Dicinnamyl 4-(3-nitrophenyl)-2,6-dimethyl-1,4-dihydropyridine-3,5-dicarboxylate]	27 min	32 mmHg	> 90 min
CC1=C(C(=O)OCC#Cc2ccccc2)C(c2cccc([N+](=O)[O-])c2)C(C(=O)OCC=Cc2ccccc2)=C(C)N1 (centres unmarked) [Example 46, Cinnamyl phenylpropargyl 4-(3-nitrophenyl)-2,6-dimethyl-1,4-dihydropyridine-3,5-dicarboxylate]	20 min	20 mmHg	
CC1=C(C(=O)OCC=Cc2ccccc2)C(c2cccc([N+](=O)[O-])c2)C(C(=O)OC(C)C=Cc2ccccc2)=C(C)N1 (centres unmarked) [Example 47, Cinnamyl 1-methyl-3-phenyl-2-propenyl 4-(3-nitrophenyl)-2,6-dimethyl-1,4-dihydropyridine-3,5-dicarboxylate]	48 min	67 mmHg	> 120 min
COC(=O)C1=C(C)NC(C)=C(C(=O)OCC=CC=Cc2cccs2)C1c1cccc([N+](=O)[O-])c1 (centres unmarked) [Example 51, Methyl 5-(2-thienyl)-2,4-pentadienyl 4-(3-nitrophenyl)-2,6-dimethyl-1,4-dihydropyridine-3,5-dicarboxylate]	2.0 min	40 mmHg	> 90 min
COC(=O)C1=C(C)NC(C)=C(C(=O)OCC=CC=Cc2ccco2)C1c1cccc([N+](=O)[O-])c1 (centres unmarked) [Example 52, Methyl 5-(2-furyl)-2,4-pentadienyl 4-(3-nitrophenyl)-2,6-dimethyl-1,4-dihydropyridine-3,5-dicarboxylate]	2.0 min	55 mmHg	> 90 min
